Source: patent US20230212123A1, “Pyridine Inhibitors of Glucosylceramide Synthase and Therapeutic Methods Using the Same” (THE REGENTS OF THE UNIVERSITY OF MICHIGAN, priority 2020, published 2023)
pIC50: −log10 of the molar value.

Assays:
[1] = Pharmacokinetics in mice: plasma and brain drug AUC; format: in vivo; settings: over 7 hrs following single IP injection at 10 mg/kg; for Kp / AUC: mouse; for Kp: brain/plasma; for AUC: plasma
[2] = target: T1, glucosylceramide synthase (GCS) (Canis lupus familiaris, UniProt A0A8I3MXG6); test: GCS inhibition in MDCK cell homogenates (Lysate IC50); format: biochemical, canine; settings: MDCK cell homogenate
T1 construct: endogenous in cells; host or cells: MDCK cell homogenate
T1 sequence (A0A8I3MXG6 1-394): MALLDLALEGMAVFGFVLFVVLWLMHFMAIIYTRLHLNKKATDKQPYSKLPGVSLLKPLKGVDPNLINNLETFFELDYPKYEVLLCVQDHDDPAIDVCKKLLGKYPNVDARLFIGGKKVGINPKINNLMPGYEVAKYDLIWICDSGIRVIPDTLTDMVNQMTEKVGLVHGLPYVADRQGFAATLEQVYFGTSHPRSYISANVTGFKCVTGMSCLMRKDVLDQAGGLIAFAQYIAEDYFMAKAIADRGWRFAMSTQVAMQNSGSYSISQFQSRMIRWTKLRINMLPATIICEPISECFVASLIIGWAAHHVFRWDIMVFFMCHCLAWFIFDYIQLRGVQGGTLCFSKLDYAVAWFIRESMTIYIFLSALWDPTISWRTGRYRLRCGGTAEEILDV
Method: GCS Inhibition in MDCK Cell Homogenates (Lysate IC50, Table 1)
IC50 values for new compounds of the invention were determined as reported in Shayman J. A., Abe A. 2000. Glucosylceramide synthase: assay and properties. Methods Enzymol.311: 42-49.

GCS in MDCKII cells = target: T2, GCS in MDCKII cells (Canis lupus familiaris, UniProt A0A8I3MXG6); test: GCS inhibition in MDCKII cells (glucosylceramide content after 24 h); format: cell-based, canine
T2 construct: whole cellular lipids of wild type MDCKII cells were extracted; endogenous in cells; host or cells: wild type MDCKII cells
T2 sequence (A0A8I3MXG6 1-394): T1 sequence (A0A8I3MXG6 1-394)
Method: GCS Inhibition in MDCKII Cells (MDCKII IC50, Table 1)
MDCKII cells were routinely maintained in medium consisting of Opti-MEM/F12 (1:1), 5% FBS, 100 U/mL of penicillin, 100 µg/mL streptomycin and 200 mM L-glutamine. MDCKII cells were newly thawed from frozen ampules every two months.
Stock solutions of water-insoluble glycosphingolipid inhibitors (100 mM) were prepared by dissolving each inhibitor into 100% ethanol as previously described (3). The inhibitor-ethanol solutions then were diluted 50X into 2 mM delipidated bovine serum albumin-phosphate buffered saline solution to make water-soluble glycosphingolipid inhibitor-bovine serum albumin complexes. The inhibitor-bovine serum album complexes were sterile-filtered and stored at -20° C. Prior to use, portions of the inhibitor-bovine serum albumin complexes were further diluted with Opti-F12 to make treatment solutions. Equal amounts of bovine serum albumin and ethanol were added into the control cultures. Cells (5 x 10^5) were seeded into 10-cm culture dishes containing 10 ml of Opti-F12 with 5% FBS. After 24 hours, the medium was replaced with fresh serum-free Opti-F12 medium, and cells were exposed to candidate GCS inhibitors at concentrations of 0, 1, 3, 10, 30, 100 and 300 nM for 24 hours.
Following inhibitor treatment, whole cellular lipids of wild type MDCKII cells were extracted as previously described in detail (10). Briefly, cells were washed with ice-cold phosphate buffered saline, fixed by methanol, and collected with rubber scraper. Chloroform was then added to yield a theoretical ratio of chloroform:methanol:water at 1:2:0.8 (v/v/v) to form a mono-phase. Cell debris and proteins were removed by centrifugation at 2200 x g for 30 min. The supernatants were portioned by adding chloroform and 0.9% NaCl. The lower organic phases containing neutral glycosphingolipids lipids were washed with methanol and 0.9% NaCl, and subjected to base- and acid-hydrolysis (10). A portion of purified glycosphingolipids normalized to 100 nmol of total phospholipids was analyzed by high performance thin layer chromatography. The thin layer chromatography separations were processed twice. The plate pretreated with 1% sodium borate was first developed in a solvent system consisting of chloroform/methanol (98/2, v/v). After air drying, the plate was then developed in a solvent system containing chloroform/methanol/water (70/30/4, v/v/v). The levels of glucosylceramide were detected by charring with 8% cupric sulfate in 8% phosphoric acid, and quantified by densitometric scanning using ImageJ, NIH Image. Image data was analyzed, and the IC50 of each inhibitor was calculated using GraphPad Prism (version 5.03).

[3] = tested on: glucosylceramide (GlcCer) in brain and liver; test: Reduction of brain and liver glucosylceramide in CBE mice; format: in vivo; settings: 14 days, D409V/null mice with CBE 25 mg/kg/day ip
Method: The in vivo assay measured the reduction in brain and liver glucosylceramide and glucosylsphingosine levels in mice on a D409V background concurrently treated with conduritol B epoxide (CBE), an irreversible inhibitor of GBA (beta-glucocerebrosidase).
Reduction of Brain and Liver Glucosylceramide and Glucosylsphingosine in CBE Mice
The reduction by inhibitors of GCS in brain glucosylceramide and glucosylsphingosine content was determined by the use of mice with Gba 1 mutant alleles, termed D409V/null. These are knock-in mice with a Gba 1 point mutation encoding Valine (V) 409 for the wild type (WT) Aspartate (D) on one missense allele and a null heteroallele [D409V/null (9V/null)]. The D409V/null and WT littermates were of mixed gender and mixed, but matched, genetic backgrounds of C57BL/129Sv/FVB. […] Mice were concurrently treated with GCS inhibitor or vehicle control for 14 days. The mice were sacrificed 2 hours following the last injection and tissues including brain, liver, spleen, kidney and lung were analyzed for glucosylceramide and glucosylsphingosine by mass spectrometry.
Mouse Tissue Lipid Analysis
Lipid extractions of liver, kidney, and brain were performed as previously described (7). Briefly, frozen liver (about 0.5 g), two kidneys (about 0.3 g) and whole brain (about 0.4 g) were individually homogenized in sucrose buffer (250 mM sucrose, pH 7.4, 10 mM HEPES and 1 mM EDTA), at 0.2 g tissue/1 mL of sucrose buffer, with a Tri-R homogenizer. Each 0.8 mL of homogenate was mixed with 2 mL of methanol and 1 mL of chloroform, bath sonicated for 1 min and incubated at room temperature for 1 h. Tissue debris were removed by centrifugation at 2.400 x gravity for 30 min. The pellets were reextracted by mixing with 1 mL of methanol, 0.5 mL of chloroform and 0.4 mL of 0.9% NaCl (chloroform/methanol/0.9% NaCl, 1:2:0.8), incubated at room temperature for 1 h and centrifuged at 2.400 x gravity for another 30 min. Two extracts were combined and mixed with 4.5 mL of chloroform and 1.2 mL of 0.9% NaCl (chloroform/methanol/0.9% NaCl, 2:1:0.8). After centrifugation at 800 x gravity for 5 min, lower layer was washed with 3 mL of methanol and 2.4 mL of 0.9% NaCl. Second washing was carried with 3 mL of methanol, 2 mL of water and 0.4 mL of 0.9% NaCl followed by a 5 min centrifugation at 800 x gravity. The resultant lower phase was collected and dried under a stream of N2 gas.
The analysis of neutral glycosphingolipids from mouse liver, kidney, and brain was processed after alkaline methanolysis. Kidney lipids were incubated with 2 mL of chloroform and 1 ml of 0.21 N NaOH in methanol for 2 h (kidney) or 7.5 h (liver and brain) at RT. […] GlcCer levels were quantified by comparison to known standards.

[4] = 24 hours exposure, glucosylceramide level

Q: Which Kp [1] does the source give for `CC(C)(C)Oc1ccc([C@@H](O)[C@@H](CN2CCCC2)NC(=O)CC2Cc3ccccc3C2)cc1` [reference compound] here?
A: 0.58

Q: What about the AUC [1] of the same compound?
A: 1070 ng·h/mL

Q: What about the “Brain drug AUC” value [1] of the same compound?
A: 619 ng·h/g

Q: Which results are given for `CC(C)(C)Oc1ccc([C@@H](O)[C@@H](CN2CCCC2)NC(=O)CC2Cc3ccccc3C2)nc1` [Example 17, N-((1S,2R)-1-(5-(tert-butoxy)pyridin-2-yl)-1-hydroxy-3-(pyrrolidin-1-yl)propan-2-yl)-2-(2,3-dihydro-1H-inden-2-yl)acetamide]?
A: pIC50 [2]: 7.95; pIC50 (GCS in MDCKII cells; [4]): 8.34; CBE mouse GlcCer reduction in brain ([3]; dose 100 µmol/kg): 23%; CBE mouse GlcCer reduction in liver ([3]; dose 100 µmol/kg): 34%; Kp [1]: 0.34; AUC [1]: 902 ng·h/mL; Brain drug AUC [1]: 308 ng·h/g

Q: With `O=C(CC1Cc2ccccc2C1)N[C@H](CN1CCCC1)[C@H](O)c1cc(Cl)ccn1` [Example 25, N-((1S,2R)-1-(4-chloropyridin-2-yl)-1-hydroxy-3-(pyrrolidin-1-yl)propan-2-yl)-2-(2,3-dihydro-1H-inden-2-yl)acetamide] as the compound, how does the pIC50 [2] read?
A: 7.44

Q: And the “CBE mouse GlcCer reduction in brain” value ([3]; dose 72 µmol/kg)?
A: 30%

Q: And the “CBE mouse GlcCer reduction in liver” value ([3]; dose 72 µmol/kg)?
A: 36%

Q: What about the Kp [1] of the same compound?
A: 0.17

Q: What about the AUC [1] of the same compound?
A: 1040 ng·h/mL

Q: What about the “Brain drug AUC” value [1] of the same compound?
A: 173 ng·h/g

Q: With `O=C(CC1Cc2ccccc2C1)N[C@H](CN1CCCC1)[C@H](O)c1ccc(OC(F)(F)F)cn1` [Example 21, 2-(2,3-dihydro-1H-inden-2-yl)-N-((1S,2R)-1-hydroxy-3-(pyrrolidin-1-yl)-1-(5-(trifluoromethoxy)pyridin-2-yl)propan-2-yl)acetamide] as the compound, how does the pIC50 [2] read?
A: 7.11

Q: What about the pIC50 (GCS in MDCKII cells; cell marked 'rac': value of the racemate, 24 hours) of the same compound?
A: 8.19

Q: And the Kp [1]?
A: 0.35

Q: And the AUC [1]?
A: 1120 ng·h/mL

Q: What about the “Brain drug AUC” value [1] of the same compound?
A: 398 ng·h/g

Q: Which results are given for `O=C(CC1Cc2ccccc2C1)N[C@H](CN1CCCC1)[C@H](O)c1ccc(OC(F)(F)F)cc1` [reference compound]?
A: Kp [1]: 0.8; Brain drug AUC [1]: 1046 ng·h/g; Plasma drug AUC [1]: 1308 ng·h/mL

Q: With `CC(C)(C)Oc1ccc([C@@H](O)[C@@H](CN2CCCC2)NC(=O)CC2Cc3ccccc3C2)nc1` [Example 7, N-((1S,2R)-1-(5-(tert-butoxy)pyridin-2-yl)-1-hydroxy-3-(pyrrolidin-1-yl)propan-2-yl)-2-(2,3-dihydro-1H-inden-2-yl)acetamide] as the compound, how does the pIC50 [2] read?
A: 7.79

Q: What about the pIC50 (GCS in MDCKII cells; [4]) of the same compound?
A: 8.10

Q: With `O=C(CC1Cc2ccccc2C1)N[C@H](CN1CCCC1)[C@H](O)c1cccc(Cl)c1` [reference compound] as the compound, how does the Kp [1] read?
A: 0.72

Q: And the “Brain drug AUC” value [1]?
A: 1109 ng·h/g
